Key:
[1] = system: rabbit serum obtained by immunizing a rabbit with the SARS-CoV strain Frankfurt 1; format: binding; design: Binding of a rabbit serum to linear peptides / Binding of a rabbit serum to looped peptides / Rabbit serum linear peptides / Rabbit serum looped peptides / Binding of a rabbit serum to linear peptides of protein N of SARS-CoV Urbani (Rabbit serum linear peptides) / Binding of a rabbit serum to looped/cyclic peptides of protein N of SARS-CoV Urbani (Rabbit serum looped peptides): unit not given here
[2] = system: recombinant human anti-SARS-CoV antibody 03-018; format: binding; design: Binding of antibody 03-018 to linear peptides of the N protein of SARS-CoV Urbani / Binding of antibody 03-018 to looped/cyclic peptides of the N protein of SARS-CoV Urbani: unit not given here
[3] = system: antibodies in sera from SARS patients (sera 1a, 1b, 2, 6, 37, 62, London, SARS-yellow, SARS-green); format: binding, human; design: Binding of serum 6 to linear peptides of protein X1 of SARS-CoV Urbani / Binding of serum 37 to linear peptides of protein X1 of SARS-CoV Urbani / Binding of serum 6 to looped/cyclic peptide (PEPSCAN-ELISA) / Binding of serum 37 to looped/cyclic peptide (PEPSCAN-ELISA) / Binding of serum 37 to looped/cyclic peptides of protein X1 of SARS-CoV Urbani / Binding of serum 6 to linear peptides of protein X2 / Binding of serum 37 to linear peptides of protein X2 / Binding of serum 37 to looped/cyclic peptides of protein X2 of SARS-CoV Urbani / Binding of serum 6 to linear peptides of protein M of SARS-CoV Urbani / Binding of serum 37 to linear peptides of protein M of SARS-CoV Urbani / Binding of serum 6 to looped/cyclic peptides of protein M of SARS-CoV Urbani / Binding of serum 37 to looped/cyclic peptides of protein M of SARS-CoV Urbani / Binding of serum 6 to linear peptides of protein X3 of SARS-CoV Urbani / Binding of serum 37 to linear peptides of protein X3 of SARS-CoV Urbani / Binding of serum 37 to looped/cyclic peptides of protein X3 of SARS-CoV Urbani / Binding of serum 6 to linear peptides of protein X4 of SARS-CoV Urbani / Binding of serum 37 to linear peptides of protein X4 of SARS-CoV Urbani / Binding of serum 37 to looped/cyclic peptides of protein X4 of SARS-CoV Urbani / Binding of serum 6 to linear peptides of protein X5 of SARS-CoV Urbani / Binding of serum 37 to linear peptides of protein X5 of SARS-CoV Urbani / Binding of serum 37 to looped/cyclic peptides of protein X5 of SARS-CoV Urbani / Binding of serum 6 to linear peptides of protein N of SARS-CoV Urbani / Binding of serum 37 to linear peptides of protein N of SARS-CoV Urbani / Binding of serum 6 to linear peptide (PEPSCAN-ELISA) / Binding of serum 1a to looped/cyclic peptides of protein N of SARS-CoV Urbani / Binding of serum 1b to looped/cyclic peptides of protein N of SARS-CoV Urbani / Binding of serum 2 to looped/cyclic peptides of protein N of SARS-CoV Urbani / Binding of serum 6 to looped/cyclic peptides of protein N of SARS-CoV Urbani / Binding of serum 37 to looped/cyclic peptides of protein N of SARS-CoV Urbani / Binding of serum 62 to looped/cyclic peptides of protein N of SARS-CoV Urbani / Binding of serum London to looped/cyclic peptides of protein N of SARS-CoV Urbani / Binding of serum SARS-green to looped/cyclic peptides of protein N of SARS-CoV Urbani: unit not given here
[4] = system: control sera (pooled serum of ten healthy LUMC hospital workers; commercial negative donor pooled serum from the Dutch bloodbank); format: binding, human; design: Binding of Control serum LUMC to linear peptides / Binding of Control serum Blood-bank to linear peptides / Binding of Control serum LUMC to looped peptides / Binding of Control Serum Blood-Bank to Looped peptides / Binding of Control serum LUMC to linear peptides of the protein M of SARS-CoV Urbani / Binding of Control serum Blood-bank to linear peptides of the protein M of SARS-CoV Urbani / Binding of Control serum LUMC to looped peptides of the protein M of SARS-CoV Urbani / Binding of Control Serum Blood-Bank to Looped peptides of the protein M of SARS-CoV Urbani: unit not given here

| Sequence | Binding of a rabbit serum to linear peptides of protein N of SARS-CoV Urbani (Rabbit serum linear peptides) [1] | Binding of a rabbit serum to looped/cyclic peptides of protein N of SARS-CoV Urbani (Rabbit serum looped peptides) [1] | Binding of antibody 03-018 to linear peptides of the N protein of SARS-CoV Urbani [2] | Binding of antibody 03-018 to looped/cyclic peptides of the N protein of SARS-CoV Urbani [2] | Binding of serum 1a to linear peptides of protein N of SARS-CoV Urbani [3] | Binding of serum 1a to looped/cyclic peptides of protein N of SARS-CoV Urbani [3] | Binding of serum 1b to linear peptides of protein N of SARS-CoV Urbani [3] | Binding of serum 1b to looped/cyclic peptides of protein N of SARS-CoV Urbani [3] | Binding of serum 2 to linear peptides of protein N of SARS-CoV Urbani [3] | Binding of serum 2 to looped/cyclic peptides of protein N of SARS-CoV Urbani [3] | Binding of serum 6 to linear peptides of protein N of SARS-CoV Urbani [3] | Binding of serum 6 to looped/cyclic peptides of protein N of SARS-CoV Urbani [3] | Binding of serum 37 to linear peptides of protein N of SARS-CoV Urbani [3] | Binding of serum 37 to looped/cyclic peptides of protein N of SARS-CoV Urbani [3] | Binding of serum 62 to linear peptides of protein N of SARS-CoV Urbani [3] | Binding of serum 62 to looped/cyclic peptides of protein N of SARS-CoV Urbani [3] | Binding of serum London to linear peptides of protein N of SARS-CoV Urbani [3] | Binding of serum London to looped/cyclic peptides of protein N of SARS-CoV Urbani [3] | Binding of serum SARS-green to looped/cyclic peptides of protein N of SARS-CoV Urbani [3] | Binding of serum SARS-yellow to looped/cyclic peptides of protein N of SARS-CoV Urbani [3] | other results |
| --- | --- | --- | --- | --- | --- | --- | --- | --- | --- | --- | --- | --- | --- | --- | --- | --- | --- | --- | --- | --- | --- |
| FSRQLQNSMSGASAD | 0.4 | 0.1 | 0.1 | 0.2 | 0.2 | 0.2 | 0.1 | 0.1 | 0.1 | 0.2 | 0.2 | 0.1 | 0.7 | 0.4 | 0.6 | 0.2 | 0.6 | 0.2 | 0.0 | 0.0 | Binding of serum SARS-green to linear peptides of protein N of SARS-CoV Urbani [3]: 0.6; Binding of serum SARS-yellow to linear peptides of protein N of SARS-CoV Urbani [3]: 0.4; Control Serum Blood-Bank Looped peptides [4]: 0.4; Control serum Blood-bank linear peptides [4]: 0.7; Control serum LUMC linear peptides [4]: 0.6; Control serum LUMC looped peptides [4]: 0.2 |
| GARPKQRRPQGLPNN | 0.1 | 0.2 | 0.1 | 0.2 | 0.2 | 0.3 | 0.1 | 0.1 | 0.2 | 0.4 | 0.1 | 0.3 | 0.4 | 0.4 | 0.6 | 0.5 | 0.5 | 0.4 | 0.4 | 0.2 | Binding of serum SARS-green to linear peptides of protein N of SARS-CoV Urbani [3]: 0.3; Binding of serum SARS-yellow to linear peptides of protein N of SARS-CoV Urbani [3]: 0.6; Binding of Control Serum Blood-Bank to Looped peptides [4]: 0.5; Binding of Control serum Blood-bank to linear peptides [4]: 0.7; Binding of Control serum LUMC to linear peptides [4]: 0.7; Binding of Control serum LUMC to looped peptides [4]: 0.6 |
| VATEGALNTPKDHIG | 0.2 | 0.0 | 0.2 | 0.2 | 0.3 | 0.3 | 0.1 | 0.2 | 0.2 | 0.3 | 0.2 | 0.2 | 0.7 | 0.4 | 1.1 | 0.3 | 0.7 | 0.3 | 0.2 | 0.2 | Binding of serum SARS-green to linear peptides of protein N of SARS-CoV Urbani [3]: 0.5; Binding of serum SARS-yellow to linear peptides of protein N of SARS-CoV Urbani [3]: 0.6; Binding of Control Serum Blood-Bank to Looped peptides [4]: 0.5; Binding of Control serum Blood-bank to linear peptides [4]: 0.9; Binding of Control serum LUMC to linear peptides [4]: 0.9; Binding of Control serum LUMC to looped peptides [4]: 0.5 |
| QQQQGQTVTKKSAAE | 0.3 | 0.0 | 0.1 | 0.2 |  | 0.3 |  | 0.1 |  | 0.3 |  | 0.1 |  | 0.3 |  | 0.2 |  | 0.2 | 0.0 | 0.1 | Binding of serum 1a to linear peptide (PEPSCAN-ELISA) [3]: 0.8; Binding of serum 1b to linear peptide (PEPSCAN-ELISA) [3]: 0.3; Binding of serum 2 to linear peptide (PEPSCAN-ELISA) [3]: 0.7; Binding of serum 6 to linear peptide (PEPSCAN-ELISA) [3]: 0.2; Binding of serum 37 to linear peptide (PEPSCAN-ELISA) [3]: 0.7; Binding of serum 62 to linear peptide (PEPSCAN-ELISA) [3]: 0.7; Binding of serum London to linear peptide (PEPSCAN-ELISA) [3]: 0.7; Binding of serum SARS-green to linear peptide (PEPSCAN-ELISA) [3]: 0.3; Binding of serum SARS-yellow to linear peptide (PEPSCAN-ELISA) [3]: 0.9; Binding of Control Serum Blood-Bank to Looped peptides [4]: 0.2; Binding of Control serum Blood-bank to linear peptides [4]: 0.6; Binding of Control serum LUMC to linear peptides [4]: 0.6; Binding of Control serum LUMC to looped peptides [4]: 0.2 |

Reference: patent publication US20070128217A1 (priority 2003, published 2007)
